The values that follow come from patent publication US6068976A, “Modulators of ob gene and screening methods therefor” (priority 1996, dated 2000).

Read-outs that look alike come from different tables or passages of the source. No end group written: not given here.

The test system of series [1] is PPAR nuclear hormone receptors. Conditions: cited from earlier work.
A short description of series [2]: In vivo body weight, food intake and tissue weights in treated rats. The following applies: for Epidydimal fat pad weight / Liver weight / Body Mass: oral gavage; for Epidydimal fat pad weight: control 2.5 ± 0.3, * p < 0.05; for Liver weight: control 16.8 ± 1.3; for Body Mass: control 344 ± 22; for food consumption: 4 days, triamcinolone 20 or dexamethasone 3.7 μg/g body weight/day.

Series [3] has as its system ob gene. Description: In vivo ob mRNA levels in adipose tissue of treated rats (Northern/dot blot, actin-normalised). On the set-up: species or system rat.
Series [4] concerns human ob promoter. Description: Human ob promoter-luciferase reporter in transfected 3T3-L1 cells.
Series [5] deals with ob gene. Description: Ex vivo endogenous ob mRNA expression in rat primary adipocytes. Conditions: for ob mRNA expression in primary rat adipocytes: 24 hr; for production of ob messenger RNA in rat primary adipocytes: insulin 100 nM or dexamethasone 33 nM. The class given is cell-based.
The test system of series [6] is human ob promoter. The experiment in a line: Human ob promoter-luciferase reporter in transfected rat primary adipocytes.
For series [7], the system named is 3T3-F442A and ob 17 cells. Conditions: cited from earlier work.
A short description of series [8]: Body weight and food intake of male mice injected with ethinylestradiol. In kind it is in vivo, mouse. The following applies: 0.75 μg/g body weight, 7 day.
For series [9] the following is noted: cited from earlier work.
For a further series, the system named is cachexia. The following applies: cancer patients; cited from earlier work.
Setting [10] is: 4 days, triamcinolone 20 or dexamethasone 3.7 μg/g body weight/day.
Setting [11] is: fenofibrate 0.5% w/w in food, 14 days.
[12] abbreviates: hydrocortisone 100 μg/g body weight, once daily, 20 days.
Where [13] appears, read: hydrocortisone 1, 10 or 100 μg/g body weight, s.c., once daily, 20 days.

As for `O=C(O)COc1cc(Cl)c(Cl)cc1Cl` [2,4,5-trichlorophenoxyacetic acid], the “transcriptional activity of PPARs” value in series [1] was “transcriptional activity of the PPARs can be induced”.

Take `CN(CCOc1ccc(CC2SC(=O)NC2=O)cc1)c1ccccn1` (stereo not shown) [BRL 49653, 5-[[4-[2-(methyl-2-pyridinylamino)ethoxy]phenyl]methyl]-2,4-thiazolidinedione]: the “body or liver weight” value in series [2] (0, 1, 2, and 5 mg/kg/day over 7 days) is “no change in either body or liver weight”. Further, in series [2] (5 mg/kg/day, 7 days, 0.75%±0.1 before, p<0.05), the “ratio of adipose tissue/body weight after treatment” value is recorded as 1.2%±0.2. In addition, the food intake entry in series [2] (5, 10, 20 mg/kg/day over 7 days) is given as “significant dose dependent increase in food intake”; in [2] (relatively low doses (1, 2, 5 mg/kg/day), 7 days) it was “food intake showed a tendency to decrease, although no statistical significance was obtained”. The “Epidydimal fat pad weight” value stood at 3.3 ± 0.2 g in [2] (BRL 49653 1 mg/kg/day, 7 days); 3.8 ± 0.5 g in [2] (BRL 49653 2 mg/kg/day, 7 days); 4.0 ± 0.6 g in series [2] (BRL 49653 5 mg/kg/day, 7 days). Also, the Liver weight stood at 17.9 ± 1.3 g in series [2] (BRL 49653 1 mg/kg/day, 7 days); 18.9 ± 0.6 g in series [2] (BRL 49653 2 mg/kg/day, 7 days); 17.4 ± 1.8 g in [2] (BRL 49653 5 mg/kg/day, 7 days). Also, the “Body Mass” value in series [2] (BRL 49653 1 mg/kg/day, 7 days, mean ± SD) is given as 355 ± 21 g; in [2] (BRL 49653 2 mg/kg/day, 7 days), 361 ± 18 g; in series [2] (BRL 49653 5 mg/kg/day, 7 days), 338 ± 9 g. In series [2] (BRL 49653 1, 2, 5 mg/kg/day, 7 days), the “epidydimal fat pad weight (trend)” value is listed as “dose-dependent increase in epidydimal fat pad weight”. For the same compound, the “food intake and body weight (summary statement)” value in series [2] (rats) was “increasing food intake and body weight in rats”. The “effect on ob mRNA expression, dose dependence” value in the series on ob gene [3] (BRL 49653 0, 1, 2 or 5 mg/kg/day, 7 days) is “dose-dependent”. Moreover, the “decrease of ob mRNA levels in epidydimal fat pads” value with ob gene [3] (BRL 49653 5 mg/kg/day, 7 days) is 40%. The “effect on pGL3-OB1 in addition to PPARγ” value in the series on human ob promoter [4] (with PPARγ cotransfection) is reported as “slight cumulative effect”. For the same compound, the “ob mRNA expression in primary rat adipocytes” value in the series with ob gene [5] (100 μM, three independent experiments) was “reduced ob mRNA expression significantly”. In addition, in the series on ob gene [5] (primary adipocytes), the “suppression of ob gene expression by PPARγ in primary adipocytes” value is on record as “amplifies the suppression of ob gene expression by PPARγ in primary adipocytes”. In addition, the “additional effect on ob promoter activity” value in the series on human ob promoter [6] (10 μM, with PPARγ cotransfection) is recorded as “no further effect”. The activity at 10 µM in the series with human ob promoter [6] (Homo sapiens, Adipocyte, read-out: ob promoter activity reduced to) is 40%.

For the compound `CC(C)(Oc1ccc(Cl)cc1)C(=O)O` [Clofibric acid], the “transcriptional activity of PPARs” value in [1] is “stimulate transcriptional activity of the PPAR nuclear hormone receptors”.

On to `C[C@]12CC[C@H](O)CC1=CC[C@@H]1[C@@H]2CC[C@]2(C)C(=O)CC[C@@H]12` [DHEA, Dihydroepiandosterone], for which the food intake result in [2] (DHEA, short experiment, rats) is listed as “significant decrease in food intake”. In addition, in [2] (DHEA, three day treatment, rats), the “gain in body weight” value was “capable of reducing the gain in body weight already after a three day treatment period”.

On to `CCc1ccc(CCOc2ccc(CC3SC(=O)NC3=O)cc2)nc1` (stereo not shown) [Pioglitazone, pioglitazone], for which the inhibition at 10 µM with human ob promoter [6] (Homo sapiens, Adipocyte, read-out: decrease in pGL3-OB1 expression) was approximately 30%; with human ob promoter [6] (Homo sapiens, Adipocyte, read-out: inhibition of pGL3-OB1 expression), approximately 50%.

Take `CC1=C(/C=C/C(C)=C/C=C/C(C)=C/C(=O)O)C(C)(C)CCC1` [Retinoic acid]: in series [7], the adipogenesis entry was “inhibit adipogenesis”.

On to `C[C@@H]1C[C@H]2[C@@H]3CCC4=CC(=O)C=C[C@]4(C)[C@@]3(F)[C@@H](O)C[C@]2(C)[C@@]1(O)C(=O)CO` [dexamethasone], for which the food consumption result in [2] is reported as “reduced food consumption”. In addition, the “ob mRNA levels” value in the series with ob gene [3] (setting [10]) is on record as “increase of ob mRNA levels”. For the same compound, the “increase of ob mRNA levels in rat adipose tissue” value in the series with ob gene [3] (within 24 hr after a single injection of dexamethasone (3.7 μg/g)) is listed as 2.2 fold. Besides, in the series on ob gene [5] (dexamethasone 33 nM vs insulin 100 nM, 48 hours), the “stimulation of ob gene expression, comparison with insulin” value is listed as “stronger stimulation of ob gene expression than insulin”. Further, in the series on ob gene [5] (48 hours), the “production of ob messenger RNA in rat primary adipocytes” value is on record as “stimulated production of the ob messenger RNA”.

Consider `CCCCC(CC)COC(=O)c1ccccc1C(=O)OCC(CC)CCCC` (stereo not shown) [di-(2-ethylhexyl)-phtalate], for which the “transcriptional activity of PPARs” value in series [1] was “transcriptional activity of the PPARs can be induced”.

Regarding `C#C[C@]1(O)CC[C@H]2[C@@H]3CCc4cc(O)ccc4[C@H]3CC[C@@]21C` [ethinyl estradiol, ethinylestradiol], in series [8] (injected, sham +1.81±1.04%), the “decrease in body weight” value was found to be 14.83±1.44%. For the same compound, the food intake result in series [8] (male mice) is recorded as “important reduction in food intake”. In addition, the “body weight effect under pair-feeding” value in series [9] (ovariectomized rats, pair-fed) is given as “pair-feeding abolished the effects of estrogens on body weight”. In addition, in [9] (ovariectomized rats, substitution therapy), the body weight entry was “marked effect on body weight in ovariectomized rats”.

For `CC(C)(Oc1ccc(Cl)cc1)C(=O)OCCOC(=O)c1cccnc1` [etiofibrate], the “transcriptional activity of PPARs” value in series [1] was “stimulate transcriptional activity of the PPAR nuclear hormone receptors”.

Consider `CC(C)OC(=O)C(C)(C)Oc1ccc(C(=O)c2ccc(Cl)cc2)cc1` [fenofibrate], for which the “body or adipose tissue weight” value in [2] (setting [11]) is “did not result in a change in body or adipose tissue weight”. Also, the “liver weight after treatment” value in series [2] (fenofibrate 0.5% w/w in food, 14 days, from 13.8±0.5) turned out to be 19.7 ± 2.5 g. For the same compound, the “ob mRNA levels” value in the series on ob gene [3] (setting [11]) is on record as “did not result in a reduction of ob mRNA levels”. Moreover, the “transcriptional activity of PPARs” value in [1] is given as “stimulate transcriptional activity of the PPAR nuclear hormone receptors”.

As to `CC(C)(Oc1ccc(C(=O)c2ccc(Cl)cc2)cc1)C(=O)O` [fenofibric acid], in the series on ob gene [5] (250 μM), the “ob mRNA expression in primary rat adipocytes” value was “no effect of fenofibrate on ob mRNA levels was detected”.

Take `Cc1ccc(C)c(OCCCC(C)(C)C(=O)O)c1` [gemfibrozil]: the “transcriptional activity of PPARs” value in series [1] is “stimulate transcriptional activity of the PPAR nuclear hormone receptors”.

Take `C[C@]12CCC(=O)C=C1CC[C@@H]1[C@@H]2[C@@H](O)C[C@@]2(C)[C@H]1CC[C@]2(O)C(=O)CO` [hydrocortisone]: in series [2] (hydrocortisone 100 μg/g body weight, 20 days), the “body weight at end of treatment” value is recorded as “slight decrease in body weight”. Moreover, the body weight gain entry is “completely prevented this gain in body weight” in [2] (setting [12]) and “dose-dependent reduction in body weight gain” in series [2] (setting [13]). Further, in [2] (setting [12]), the “reduction of food consumption vs untreated animals” value is on record as 10-15%. The “time of maximal ob mRNA effect” value with ob gene [3] (hydrocortisone 100 μg/g body weight/day) was found to be 2 days. For the same compound, the “increase of ob mRNA levels” value with ob gene [3] (hydrocortisone 100 μg/g body weight/day, adipose tissue) is recorded as “more than 2 fold”. Further, the “ob mRNA levels in adipose tissue” value in the series on ob gene [3] (setting [13]) is recorded as “dose-dependent induction of ob mRNA levels in adipose tissue”. In addition, the “β-actin mRNA levels” value in the series with ob gene [3] (hydrocortisone, entire treatment period) is reported as “remained constant”.

As to `CC(=O)CCCCn1c(=O)c2c(ncn2C)n(C)c1=O` [pentoxifylline], the reduction of cachexia result in the series with cachexia was “improve the conditions of some patients”.

With `N[C@@H](Cc1cc(I)c(Oc2cc(I)c(O)c(I)c2)c(I)c1)C(=O)O` [thyroxine], in series [9] (rats, literature), the body weight result was “decrease in body weight” and the food intake entry is “increase in food intake”.

For the compound `C[C@]12C=CC(=O)C=C1CC[C@H]1[C@@H]3C[C@@H](O)[C@](O)(C(=O)CO)[C@@]3(C)C[C@H](O)[C@@]12F` [triamcinolone], in series [2], the food consumption entry is recorded as “reduced food consumption”. Moreover, the “ob mRNA levels” value with ob gene [3] (setting [10]) was “increase of ob mRNA levels”.

Regarding N-propyl-thiouracil, in series [9] (rats, literature), the body weight entry is “significant increase in body weight” and the food intake entry is reported as “ingest less food”.

Turning to “corticotropin-releasing hormone: corticotropin-releasing hormone (SEEPPISLDLTFHLLREVLEMARAEQLAQQAHSNRKLMEII; ends and bridges not checked; UniProt P06850 154-194, looked up)”, the body weight result in [9] (hypothalamic administration, fat rats) is reported as “reduces body weight”.

Take “insulin: insulin (1 U; Actrapid HMge, Novo Nordisk)”: the “stimulatory effect of insulin on ob mRNA under clamp” value in the series with ob gene [3] (hyper- or eu-glycemic clamps) is listed as “maintained when plasma glucose levels were maintained at either high or low levels”. Also, in the series on ob gene [3] (refeeding plus insulin after overnight fast), the “ob mRNA level, refeeding plus insulin” value is “no additive effects on ob mRNA level”. Besides, in the series with ob gene [3] (single dose insulin (1 U), fasted rats, 4 hours), the “increase in adipose tissue ob gene expression relative to fasted rats” value is 50-60%. Also, the “increase in ob mRNA relative to actin controls” value with ob gene [3] (single subcutaneous injection 1 I.U. insulin, 4 hours post injection, fasted rats) is “approximately two-fold increase”. In the series with human ob promoter [4] (pGL3-OB1 in 3T3-L1 cells, insulin, control plasmid unaffected), the “ob promoter luciferase expression in response to insulin” value is “two-fold”. Besides, the “production of ob mRNA in primary rat adipocytes” value with ob gene [5] (1 or 10 nM insulin, 10% FBS) is listed as “stimulated the production of ob mRNA in a dose dependent manner”. In the series on ob gene [5] (48 hours), the “production of ob messenger RNA in rat primary adipocytes” value was “stimulated production of the ob messenger RNA”. The “increase of the level of ob mRNA (pGL3B-OB1 luciferase vector)” value with human ob promoter [6] (200 nM insulin, 10% FBS, primary adipocytes with pGL3B-OB1) was determined as 140%.
